Converted amounts (≈) assume the structure as drawn.

Data set [1] is described as follows: Solubility of compound in 15% DMSO by UV-Vis spectrophotometric method. It is filed as physicochemical.
Data set [2] is described as follows: Cytotoxicity against PEK cells after 7 days by microscopic method. The conditions noted are these: pig. Format: cell-based, Sus scrofa.
Data set [3] is described as follows: Solubility of compound in 5% DMSO by UV-Vis spectrophotometric method. It is filed as physicochemical.
The subject of data set [4] is Tick-borne encephalitis virus. Description: Antiviral activity against TBEV Absettarov infected in PEK cells assessed as plaque reduction preincubated for 1 hr followed by overlaying with 1.26% methylcellulose and measured after 6 days by gentian violet staining-based assay. Format: functional, organism-based.
A short description of data set [5]: Cytotoxicity against PEK cells after 24 hrs by microscopic method. The conditions noted are these: pig. Format: cell-based, Sus scrofa.

`O=c1[nH]c(=O)n([C@H]2C[C@H](O)[C@@H](CO)O2)cc1C#Cc1ccc2c3cccc4cccc(c5cccc1c52)c43`: the concentration in solution in data set [1] (solubility) was 7.8 µM (≈ 3.92 µg/mL).

As for `[N-]=[N+]=NCO[C@H]1C[C@H](n2cc(C#Cc3ccc4c5cccc6cccc(c7cccc3c74)c65)c(=O)[nH]c2=O)O[C@@H]1CO`, the midpoint of cytotoxicity in data set [2], the CC50 at 168 h, lay at 35 µM. For the same compound, the solubility in data set [3] came to 680 µM (≈ 379 µg/mL). The EC50 in data set [4] amounted to 0.0054 µM. The compound further registered a CC50 at 24 h in data set [5] of more than 50 µM.

Take `O=c1[nH]c(=O)n([C@H]2C[C@H](OCn3cc(CCO)nn3)[C@@H](CO)O2)cc1C#Cc1ccc2c3cccc4cccc(c5cccc1c52)c43`: the CC50 at 168 h in data set [2] was more than 50 µM. Moreover, in data set [4], the EC50 turned out to be 0.05 µM. In addition, the CC50 at 24 h in data set [5] was more than 50 µM.

On to `O=c1[nH]c(=O)n([C@H]2C[C@H](OCn3cc(CCCCO)nn3)[C@@H](CO)O2)cc1C#Cc1ccc2c3cccc4cccc(c5cccc1c52)c43`, for which, in data set [2], the CC50 at 168 h was more than 50 µM. For the same compound, the EC50 in data set [4] came to 0.023 µM. This compound showed a CC50 at 24 h in data set [5] of more than 50 µM.

Compound `O=c1[nH]c(=O)n([C@H]2C[C@H](OCn3cc(CO)nn3)[C@@H](CO)O2)cc1C#Cc1ccc2c3cccc4cccc(c5cccc1c52)c43` displayed a CC50 at 168 h in data set [2] of more than 50 µM. Besides, in data set [4], the EC50 was 0.03 µM. Further, the CC50 at 24 h in data set [5] is more than 50 µM.

Regarding `O=c1[nH]c(=O)n([C@H]2C[C@H](OCn3cc(CCCO)nn3)[C@@H](CO)O2)cc1C#Cc1ccc2c3cccc4cccc(c5cccc1c52)c43`, the CC50 at 168 h in data set [2] was more than 50 µM. Moreover, the EC50 in data set [4] turned out to be 0.037 µM. Moreover, in data set [5], the CC50 at 24 h was more than 50 µM.

In data set [2], `CSCO[C@H]1C[C@H](n2cc(C#Cc3ccc4c5cccc6cccc(c7cccc3c74)c65)c(=O)[nH]c2=O)O[C@@H]1CO` gave a CC50 at 168 h of more than 50 µM. In data set [3], this compound showed a solubility of 150 µM (≈ 84.4 µg/mL). In addition, the EC50 in data set [4] came to 0.0077 µM. The compound also had a CC50 at 24 h in data set [5] of more than 50 µM.

A word on the solubility: it is the dissolved amount per volume that the medium holds. A word on the CC50: it is the concentration at which the toxic effect on the cells reaches its halfway point. As a reminder, the EC50 is the concentration at which the effect is half-maximal.

The record behind these values is ChEMBL document CHEMBL4152286, “3'-O-Substituted 5-(perylen-3-ylethynyl)-2'-deoxyuridines as tick-borne encephalitis virus reproduction inhibitors” (Eur J Med Chem, 2018).
